Data taken from patent publication US20230140397A1, “ANTI-PSMA ANTIBODY-EXATECAN ANALOGUE CONJUGATE AND MEDICAL USE THEREOF” (JIANGSU HENGRUI PHARMACEUTICALS CO., LTD., priority 2020, published 2023).

What was measured:
Experiment in all cases: Cell proliferation inhibition assay (ATP, CellTiter-Glo)
Format in all cases: cell-based
[1] = test system: PC-3 cells; conditions: Homo sapiens, 120 h; PC-3, 5 days, 4.5% FBS; read-out: Effect on cell killing (IC50)
Experimental: (§1) In this experiment, the content of ATP in the cells was detected, and the inhibitory effect of the PSMA ADC on the proliferation of cells (ATCC, LNCaP/CRL-1740, 22Rv1/CRL-2505 and PC-3/CRL-1435) was evaluated according to the IC50 values.
(§2) Then 20 μL of the dilution was added to the above cell plate, and incubated in an incubator (37° C., 5% CO2) for 5 days. The compound 2-B (i.e., free toxin of 9-A) was diluted into a stock solution with DSMO, which was then prepared into an initial concentration of 200 μM with PBS, and diluted in a gradient dilution ratio of 1:6 with PBS to obtain 9 concentration points, and an additional 0 concentration point was set. Then 1 μL of the dilution was added to 20 μL of RPMI-1640, and the mixture was transferred to a 96-well culture plate, and incubated in an incubator (37° C., 5% CO2) for 5 days. In the 96-well culture plate, 80 μL of CellTiter-Glo reagent was added to each well, and the plate was incubated at room temperature for 10-15 min away from the light. The chemiluminescence signal values were read on Victor3, and the data were processed using GraphPad software.
PC-3 cells were cultured in an F-12K medium containing 10% FBS, and passaged 2-3 times a week in a passage ratio of 1:3 or 1:6. During passaging, the medium was removed by pipetting, and the cell layer was rinsed with 5 mL of 0.25% pancreatin. […]

[2] = test system: LNCaP cells; conditions: Homo sapiens, 120 h, 5 days, 4.5% FBS, read-out: Effect on cell killing (IC50)
Experimental: as §1
LNCaP cells were cultured in an RPMI-1640 medium containing 10% FBS, and passaged 2-3 times a week in a passage ratio of 1:3 or 1:6. During passaging, the medium was removed by pipetting, and the cell layer was rinsed with 5 mL of 0.25% pancreatin. Then the pancreatin was removed by pipetting, the cells were digested in an incubator for 3-5 min, and then a fresh medium was added to resuspend cells. To a 96-well culture plate were added 180 μL of cell suspension at a density of 2×10^3 cells/well and an RPMI-1640 medium containing 4.5% FBS, and to the periphery of the 96-well plate was only added the medium. The plate was incubated in an incubator for 24 h (37° C., 5% CO2).
Then 20 μL of the dilution was added to the above cell plate, and incubated in an incubator (37° C., 5% CO2) for 5 days. […] The chemiluminescence signal values were read on Victor3, and the data were processed using GraphPad software.

[3] = test system: 22Rv1 cells; conditions: Homo sapiens, 120 h; 22RV1, 5 days, 4.5% FBS; read-out: Effect on cell killing (IC50)
Experimental: as §1, §2
22Rv1 cells were cultured in an RPMI-1640 medium containing 10% FBS, and passaged twice a week in a passage ratio of 1:3 or 1:6. During passaging, the medium was removed by pipetting, and the cell layer was rinsed with 5 mL of 0.25% pancreatin. […]

## CC[C@@]1(O)C(=O)OCc2c1cc1n(c2=O)Cc2c-1nc1cc(F)c(C)c3c1c2[C@@H](NC(=O)[C@H](O)C1CC1)CC3 [Compound 2-B, (R)-2-cyclopropyl-N-((1S,9S)-9-ethyl-5-fluoro-9-hydroxy-4-methyl-10,13-dioxo-2,3,9,10,13,15-hexahydro-1H,12H-benzo[de]pyrano[3′,4′:6,7]indolizino[1,2-b]quinolin-1-yl)-2-hydroxyacetamide]
[1]
  IC50: 8.33 nM
[2]
  IC50: 1.7 nM
[3]
  IC50: 2.84 nM
